For one series, the system named is wild type MV G954. The settings on record: read-out: IC50, inhibition of MV entry (plaque reduction); wt MV G954, Vero-SLAM cells.
The test system of another series is MV-IC323-EGFP. The settings on record: for IC50: 72 h.
The conditions of series [1]: rat, in vivo.
Series [2] has as its target HPIV3 envelope glycoproteins (Human parainfluenza 3 virus, UniProt P06828). Format: cell-based, Human parainfluenza virus type 3. The settings on record: fusion assay with HPIV3 envelope glycoproteins; for IC50: read-out: IC50 nM, in vitro efficacy; for IC90: read-out: IC90 nM, in vitro efficacy.
For series [3] the following is noted: in vivo; cited from earlier work.

Chain of HPIV3 envelope glycoproteins (P06828 110-539 limits assumed): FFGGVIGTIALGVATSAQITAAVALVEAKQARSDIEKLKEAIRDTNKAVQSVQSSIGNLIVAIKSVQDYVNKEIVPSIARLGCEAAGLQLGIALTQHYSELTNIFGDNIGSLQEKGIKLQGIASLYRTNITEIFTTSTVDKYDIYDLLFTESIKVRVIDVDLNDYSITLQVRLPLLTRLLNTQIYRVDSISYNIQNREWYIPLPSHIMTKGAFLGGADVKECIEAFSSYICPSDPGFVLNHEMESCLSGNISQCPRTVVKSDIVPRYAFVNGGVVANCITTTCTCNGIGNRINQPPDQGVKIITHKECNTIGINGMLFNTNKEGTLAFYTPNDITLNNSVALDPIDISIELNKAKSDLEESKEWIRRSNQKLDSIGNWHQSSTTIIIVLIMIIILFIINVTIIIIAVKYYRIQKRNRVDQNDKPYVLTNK
Chain of HPIV3 envelope glycoproteins (P06828 19-109 partner limits assumed): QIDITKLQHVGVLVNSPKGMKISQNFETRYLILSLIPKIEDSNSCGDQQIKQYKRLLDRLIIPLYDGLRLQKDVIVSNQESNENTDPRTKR
Experimental for wild type MV G954: Vero-SLAM cell monolayers were infected with wild type MV G954 in the presence MV HRC peptides at the indicated peptide concentrations. Viral entry was assessed by plaque reduction assay. […] Each point represents the mean (±standard error) of four experiments. […] Vero-SLAM cell monolayers were infected with wild type MV-IC323-EGFP. After 90 minutes, medium with the indicated peptide concentrations was added. Viral spread was assessed by using a fluorescent readout of the EGFP after 72 hours. […] Each point represents the mean (±standard deviation) of a representative experiment.
Vero-SLAM monolayer cells were incubated with 40-50 PFU of wild type MV G954 in the presence of various concentrations of peptides. After 90 minutes, 2× minimal essential medium containing 10% FBS was mixed with 1% avicell and added to the dishes. The plates were then incubated at 37° C. for 72 h. After removing the medium overlay, the cells were immunostained for plaque detection. The number of plaques in the control (no peptide) and experimental wells were counted under a dissecting stereoscope.
The inhibitory activities of MV HRC 1, MV HRC 2, MV HRC 3 and MV HRC 4 (FIG. 1) against wt MV G954 were assessed in plaque reduction assays (FIG. 2A).

Take `CC[C@H](C)[C@H](NC(=O)[C@H](C)NC(=O)[C@H](CC(N)=O)NC(=O)CNC(=O)[C@H](CC(C)C)NC(=O)[C@H](CC(N)=O)NC(=O)[C@@H](NC(=O)CNC(=O)[C@@H](NC(=O)[C@H](CC(=O)O)NC(=O)[C@H](CC(C)C)NC(=O)[C@H](CCCNC(=N)N)NC(=O)[C@H](CCC(=O)O)NC(=O)[C@H](CC(C)C)NC(=O)[C@H](CO)NC(=O)[C@@H](NC(=O)[C@@H]1CCCN1C(=O)[C@@H]1CCCN1C(C)=O)[C@@H](C)CC)C(C)C)[C@@H](C)O)C(=O)N[C@@H](C)C(=O)N[C@@H](CCCCN)C(=O)N[C@@H](CC(C)C)C(=O)N[C@@H](CCC(=O)O)C(=O)N[C@@H](CC(=O)O)C(=O)N[C@@H](C)C(=O)N[C@@H](CCCCN)C(=O)N[C@@H](CCC(=O)O)C(=O)N[C@@H](CC(C)C)C(=O)N[C@@H](CC(C)C)C(=O)N[C@@H](CCC(=O)O)C(=O)N[C@@H](CO)C(=O)N[C@@H](CO)C(=O)N[C@@H](CC(=O)O)C(=O)N[C@@H](CCC(N)=O)C(=O)N[C@H](C(=O)N[C@@H](CC(C)C)C(=O)N[C@@H](CCCNC(=N)N)C(=O)NCC(=O)N[C@@H](CO)C(=O)NCC(=O)N[C@@H](CO)C(=O)NCC(=O)N[C@@H](CSCC(N)=O)C(N)=O)[C@@H](C)CC` [MV HRC1]: the IC50 in the series on wild type MV G954 was about 7000 nM. Besides, the “reduction of viral infection (fluorescence level)” value in the series with MV-IC323-EGFP is recorded as “neither MV HRC 1 nor MV HRC 3 reduced viral infection”.

As to `CC[C@H](C)[C@H](NC(=O)[C@H](C)NC(=O)[C@H](CC(N)=O)NC(=O)CNC(=O)[C@H](CC(C)C)NC(=O)[C@H](CC(N)=O)NC(=O)[C@@H](NC(=O)CNC(=O)[C@@H](NC(=O)[C@H](CC(=O)O)NC(=O)[C@H](CC(C)C)NC(=O)[C@H](CCCNC(=N)N)NC(=O)[C@H](CCC(=O)O)NC(=O)[C@H](CC(C)C)NC(=O)[C@H](CO)NC(=O)[C@@H](NC(=O)[C@@H]1CCCN1C(=O)[C@@H]1CCCN1C(C)=O)[C@@H](C)CC)C(C)C)[C@@H](C)O)C(=O)N[C@@H](C)C(=O)N[C@@H](CCCCN)C(=O)N[C@@H](CC(C)C)C(=O)N[C@@H](CCC(=O)O)C(=O)N[C@@H](CC(=O)O)C(=O)N[C@@H](C)C(=O)N[C@@H](CCCCN)C(=O)N[C@@H](CCC(=O)O)C(=O)N[C@@H](CC(C)C)C(=O)N[C@@H](CC(C)C)C(=O)N[C@@H](CCC(=O)O)C(=O)N[C@@H](CO)C(=O)N[C@@H](CO)C(=O)N[C@@H](CC(=O)O)C(=O)N[C@@H](CCC(N)=O)C(=O)N[C@H](C(=O)N[C@@H](CC(C)C)C(=O)N[C@@H](CCCNC(=N)N)C(=O)NCC(=O)N[C@@H](CO)C(=O)NCC(=O)N[C@@H](CO)C(=O)NCC(=O)N[C@@H](CSC1=CC(=O)N(CCCC(=O)NCCOCCOCCOCCOCCC(=O)NCCNCCOC2CCC3(C)C(=CCC4C3CCC3(C)C(C(C)CCCC(C)C)CCC43)C2)C1=O)C(N)=O)[C@@H](C)CC` (some centres unmarked) [MV HRC2], the IC50 in the series on MV-IC323-EGFP was about 54 nM. In series [1], the “presence in the brain / CNS localization” value is recorded as “a small fraction of the administered peptides was present” and the “presence in the serum” value is “a small fraction of the administered peptides was present”.

With `CC[C@H](C)[C@H](NC(=O)[C@H](C)NC(=O)[C@H](CC(N)=O)NC(=O)CNC(=O)[C@H](CC(C)C)NC(=O)[C@H](CC(N)=O)NC(=O)[C@@H](NC(=O)CNC(=O)[C@@H](NC(=O)[C@H](CC(=O)O)NC(=O)[C@H](CC(C)C)NC(=O)[C@H](CCCNC(=N)N)NC(=O)[C@H](CCC(=O)O)NC(=O)[C@H](CC(C)C)NC(=O)[C@H](CO)NC(=O)[C@@H](NC(=O)[C@@H]1CCCN1C(=O)[C@@H]1CCCN1C(C)=O)[C@@H](C)CC)C(C)C)[C@@H](C)O)C(=O)N[C@@H](C)C(=O)N[C@@H](CCCCN)C(=O)N[C@@H](CC(C)C)C(=O)N[C@@H](CCC(=O)O)C(=O)N[C@@H](CC(=O)O)C(=O)N[C@@H](C)C(=O)N[C@@H](CCCCN)C(=O)N[C@@H](CCC(=O)O)C(=O)N[C@@H](CC(C)C)C(=O)N[C@@H](CC(C)C)C(=O)N[C@@H](CCC(=O)O)C(=O)N[C@@H](CO)C(=O)N[C@@H](CO)C(=O)N[C@@H](CC(=O)O)C(=O)N[C@@H](CCC(N)=O)C(=O)N[C@H](C(=O)N[C@@H](CC(C)C)C(=O)N[C@@H](CCCNC(=N)N)C(=O)NCC(=O)N[C@@H](CO)C(=O)NCC(=O)N[C@@H](CO)C(=O)NCC(=O)N[C@@H](CSC1=CC(=O)N(CCCC(=O)NCCOCCOCCOCCOCCC(=O)NCCN(CCNC(=O)CCOCCOCCOCCOCCNC(=O)CCCN2C(=O)C=C(SC[C@H](NC(=O)CNC(=O)[C@H](CO)NC(=O)CNC(=O)[C@H](CO)NC(=O)CNC(=O)[C@H](CCCNC(=N)N)NC(=O)[C@H](CC(C)C)NC(=O)[C@@H](NC(=O)[C@H](CCC(N)=O)NC(=O)[C@H](CC(=O)O)NC(=O)[C@H](CO)NC(=O)[C@H](CO)NC(=O)[C@H](CCC(=O)O)NC(=O)[C@H](CC(C)C)NC(=O)[C@H](CC(C)C)NC(=O)[C@H](CCC(=O)O)NC(=O)[C@H](CCCCN)NC(=O)[C@H](C)NC(=O)[C@H](CC(=O)O)NC(=O)[C@H](CCC(=O)O)NC(=O)[C@H](CC(C)C)NC(=O)[C@H](CCCCN)NC(=O)[C@H](C)NC(=O)[C@@H](NC(=O)[C@H](C)NC(=O)[C@H](CC(N)=O)NC(=O)CNC(=O)[C@H](CC(C)C)NC(=O)[C@H](CC(N)=O)NC(=O)[C@@H](NC(=O)CNC(=O)[C@@H](NC(=O)[C@H](CC(=O)O)NC(=O)[C@H](CC(C)C)NC(=O)[C@H](CCCNC(=N)N)NC(=O)[C@H](CCC(=O)O)NC(=O)[C@H](CC(C)C)NC(=O)[C@H](CO)NC(=O)[C@@H](NC(=O)[C@@H]3CCCN3C(=O)[C@@H]3CCCN3C(C)=O)[C@@H](C)CC)C(C)C)[C@@H](C)O)[C@@H](C)CC)[C@@H](C)CC)C(N)=O)C2=O)CCOC2CCC3(C)C(=CCC4C3CCC3(C)C(C(C)CCCC(C)C)CCC43)C2)C1=O)C(N)=O)[C@@H](C)CC` (some centres unmarked) [MV HRC4], the concentration for half-maximal inhibition (IC50) in the series with MV-IC323-EGFP is about 55 nM.

Consider “Ac-VALDPIDISIVLNKIKSDLEESKEWIRRSNKILDSI-GSGSG-C(PEG4-Betulinic)-NH2 (SEQ ID NO: 14) [VIKI-PEG4-Betulinic]”, for which, in series [2], the half-maximal inhibitory concentration (IC50) was 550 nM and the IC90 was over 1000 nM.

On to “Ac-VALDPIDISIVLNKIKSDLEESKEWIRRSNKILDSI-GSGSG-C(PEG4-C20)-NH2 (SEQ ID NO: 12) [VIKI-PEG4-C20]”, for which, in series [2], the half-inhibitory concentration (IC50) worked out at 75 nM and the concentration for an effect of 90% (IC90) amounted to 900 nM.

With “Ac-VALDPIDISIVLNKIKSDLEESKEWIRRSNKILDSI-GSGSG-C(PEG4-C30)-NH2 (SEQ ID NO: 13) [VIKI-PEG4-C30]”, in series [2], the half-maximal inhibitory concentration (IC50) was found to be 40 nM and the concentration for an effect of 90% (IC90) is 800 nM.

Consider “Ac-VALDPIDISIVLNKIKSDLEESKEWIRRSNKILDSI-GSGSG-C(PEG4-Ursolic)-NH2 (SEQ ID NO: 15) [VIKI-PEG4-Ursolic]”, for which, in series [2], the concentration for half-maximal inhibition (IC50) was determined as 200 nM and the IC90 is over 1000 nM.

Take “Ac-VALDPIDISIVLNKIKSDLEESKEWIRRSNKILDSI-GSGSG-C(PEG4-palm)-NH2 (SEQ ID NO: 10) [VIKI-PEG4-palm]”: in series [2], the IC50 was found to be 400 nM and the IC90 was over 1000 nM.

For the molecule enfuvirtide, in series [3], the “distribution in the CNS” value was “negligible distribution in the CNS”.

Values taken from patent US10172961B2 (priority 2014, dated 2019).
